Test results: ChEMBL document CHEMBL3044593, “Design, synthesis and anticonvulsant evaluation of novel 8-substituted-4(3H)-quinazolines” (Med Chem Res, 2012)
Active and inactive are the calls of the source. The calls are words filed in the database; no cut-off is given here.

Legend:
[1] = tested on: Mus musculus; assay: Anticonvulsant activity in Mus musculus (mouse) assessed as protection against maximal electroshock-induced seizures at 0.5 mmol/kg, ip administered 30 min prior to seizure induction measured for 60 min relative to control; format: functional
[2] = tested on: Mus musculus; assay: Anticonvulsant activity in Mus musculus (mouse) assessed as protection against strychnine-induced seizures at 0.5 mmol/kg, ip administered 30 min prior to seizure induction measured for 60 min relative to control; format: functional, organism-based
[3] = tested on: Mus musculus; assay: Anticonvulsant activity in Mus musculus (mouse) assessed as protection against picrotoxin-induced seizures at 0.5 mmol/kg, ip administered 30 min prior to seizure induction measured for 60 min relative to control; format: functional, organism-based
[4] = tested on: Mus musculus; assay: Anticonvulsant activity in Mus musculus (mouse) assessed as protection against pentylenetetrazol-induced seizures at 0.5 mmol/kg, ip administered 30 min prior to seizure induction measured for 60 min relative to control; format: functional
[5] = tested on: Mus musculus; assay: Anticonvulsant activity in ip dosed Mus musculus (mouse) assessed as protection against pentylenetetrazol-induced seizures administered 30 min prior to seizure induction measured for 60 min; format: functional
[6] = Toxicity in ip dosed Mus musculus (mouse) assessed as mortality; format: organism-based; conditions: in vivo
[7] = Therapeutic index, ratio of LD50 for ip dosed Mus musculus (mouse) to ED50 for protection against pentylenetetrazol-induced seizures in ip dosed mouse; format: organism-based; conditions: in vivo, read-out: Ratio LD50/ED50
[8] = Acute neurotoxicity in ip dosed Mus musculus (mouse) assessed as motor impairment administered 30 min prior to testing measured for 30 secs by chimney test; format: toxicity, organism-based; conditions: in vivo
[9] = tested on: Mus musculus; assay: Protective index, ratio of TD50 for ip dosed Mus musculus (mouse) to ED50 for protection against pentylenetetrazol-induced seizures in ip dosed mouse; format: functional
[10] = tested on: Mus musculus; assay: Anticonvulsant activity in Mus musculus (mouse) assessed as protection against pentylenetetrazol-induced seizures at 1.4 mmol/kg, ip administered 30 min prior to seizure induction measured for 60 min relative to control; format: functional
[11] = tested on: Mus musculus; assay: Anticonvulsant activity in Mus musculus (mouse) assessed as protection against maximal electroshock-induced seizures at 1.4 mmol/kg, ip administered 30 min prior to seizure induction measured for 60 min relative to control; format: functional
[12] = tested on: Mus musculus; assay: Anticonvulsant activity in Mus musculus (mouse) assessed as protection against maximal electroshock-induced seizures at 1.5 mmol/kg, ip administered 30 min prior to seizure induction measured for 60 min relative to control; format: functional
[13] = tested on: Mus musculus; assay: Anticonvulsant activity in Mus musculus (mouse) assessed as protection against pentylenetetrazol-induced seizures at 1.5 mmol/kg, ip administered 30 min prior to seizure induction measured for 60 min relative to control; format: functional

Row | Structure (SMILES) | Activity [1] [%] | Activity [2] | Activity [3] | Activity [4] [%] | ED50 [5] [µmol/kg] | LD50 [6] [µmol/kg] | selectivity ratio [7] | TD50 at 0.5 min [8] [µmol/kg] | Ratio TD50/ED50 [9] | Activity [10] [%] | Activity [11] [%] | Activity [12] [%] | Activity [13] [%]
1 | Cc1ccccc1-n1c(C)nc2c(OCC(=O)NNC(=O)NN)cccc2c1=O | 0 | inactive | inactive | 50 |  |  |  |  |  |  |  |  | 
2 | Cc1ccccc1-n1c(C)nc2c(OCC(=O)N/N=C\c3ccccc3F)cccc2c1=O | 50 | inactive | inactive | 66 |  |  |  |  |  |  |  |  | 
3 | CCOC(=O)NNC(=O)COc1cccc2c(=O)n(-c3ccccc3C)c(C)nc12 | 100 | inactive | inactive | 100 | 390 | 1020 | 1.51 | 600 |  |  |  |  | 
4 | Cc1ccccc1-n1c(C)nc2c(OCC(=O)NNC(=S)NN)cccc2c1=O | 33 | inactive | inactive | 66 |  |  |  |  |  |  |  |  | 
5 | Cc1ccccc1-n1c(C)nc2c(OCC(=O)NN)cccc2c1=O | 50 | inactive | inactive | 100 | 290 | 2960 | 10.2 | 790 | 2.7 |  |  |  | 
6 | Cc1ccccc1-n1c(C)nc2ccccc2c1=O [METHAQUALONE] |  |  |  |  | 1400 |  | 1.4 | 1600 |  | 100 | 100 |  | 
7 | COc1ccccc1/C=N\NC(=O)COc1cccc2c(=O)n(-c3ccccc3C)c(C)nc12 | 0 | inactive | inactive | 33 |  |  |  |  |  |  |  |  | 
8 | CSC(=S)NNC(=O)COc1cccc2c(=O)n(-c3ccccc3C)c(C)nc12 | 100 | inactive | inactive | 100 | 350 | 1170 | 3.34 | 670 |  |  |  |  | 
9 | Cc1ccccc1-n1c(C)nc2c(OCC(=O)N/N=C\c3ccccc3)cccc2c1=O | 0 | inactive | inactive | 50 |  |  |  |  |  |  |  |  | 
10 | Cc1ccccc1-n1c(C)nc2c(OCC(=O)NNC(N)=O)cccc2c1=O | 0 | inactive | inactive | 50 |  |  |  |  |  |  |  |  | 
11 | CCCC(CCC)C(=O)[O-].[Na+] [VALPROATE SODIUM] |  |  |  |  | 4800 | 11900 |  | 9600 |  |  |  | 100 | 100
12 | Cc1ccccc1-n1c(C)nc2c(OCC(=O)NCCO)cccc2c1=O | 0 | inactive | inactive | 50 |  |  |  |  |  |  |  |  | 
